In US20230091047A1 (priority 2019, published 2023):

How the values were obtained:
[1] = system: HBV (HepG2.117 cell line, inducibly HBV producing); test: Anti-HBV activity: intracellular HBV DNA by real-time PCR in HepG2.117 cells after 3 days of treatment; assay type: cell-based, hepatitis B virus; conditions: Hepatitis B virus, HepG2.117, 72 h, HepG2.117 cells, 3 days of treatment, intracellular HBV DNA by real-time PCR; mean value; read-out: EC50 (μM, mean value)
Summary of the method: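 Inducible HBV-producing HepG2.117 line (Tet-off); 3-day exposure to serially diluted compound after induction; real-time PCR of intracellular viral DNA.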

in vitro = assay type: cell-based; conditions: human, HepG2 or HepG2.117 cells, 3-days incubation (unmarked values), ATPlite; mean value
Summary of the method: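 Luminescent ATP quantitation served as the viability endpoint following a 3- or 4-day incubation with test compounds.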

SMILES | EC50 [1] [µM] | CC50 at 3 days (in vitro) [µM]
CC(C)Nc1nc2c(c(=O)n1-c1ccc(C(=O)N3CCOCC3)cc1)C[C@@H](C)N(C(=O)c1ccc(Cl)c(Cl)c1)C2 [Compound C168, (6R)-7-(3,4-dichlorobenzoyl)-6-methyl-3-[4-(morpholine-4-carbonyl)phenyl]-2-[(propan-2-yl)amino]-5,6,7,8-tetrahydropyrido[3,4-d]pyrimidin-4(3H)-one] | 0.24 | > 50
CC(C)Nc1nc2c(c(=O)n1-c1ccc(C(=O)N3CCN(C)CC3)cc1)C[C@@H](C)N(C(=O)c1ccc(Cl)c(Cl)c1)C2 [Compound C169, (6R)-7-(3,4-dichlorobenzoyl)-6-methyl-3-[4-(4-methylpiperazine-1-carbonyl)phenyl]-2-[(propan-2-yl)amino]-5,6,7,8-tetrahydropyrido[3,4-d]pyrimidin-4(3H)-one] | 0.15 | 30.7
CC(C)Nc1nc2c(c(=O)n1-c1ccc(-c3cscn3)cc1)CCN(C(=O)c1ccc(Cl)c(Cl)c1)C2 [Compound C170, 7-(3,4-dichlorobenzoyl)-2-[(propan-2-yl)amino]-3-[4-(1,3-thiazol-4-yl)phenyl]-5,6,7,8-tetrahydropyrido[3,4-d]pyrimidin-4(3H)-one] | 0.53 | > 50
CC(C)Nc1nc2c(c(=O)n1-c1ccc(-c3ncc(F)cc3F)cc1)CCN(C(=O)c1ccc(Cl)c(Cl)c1)C2 [Compound C171, 7-(3,4-dichlorobenzoyl)-3-[4-(3,5-difluoropyridin-2-yl)phenyl]-2-[(propan-2-yl)amino]-5,6,7,8-tetrahydropyrido[3,4-d]pyrimidin-4(3H)-one] | 3.95 | 4.6
COc1cccnc1-c1ccc(-n2c(NC(C)C)nc3c(c2=O)CCN(C(=O)c2ccc(Cl)c(Cl)c2)C3)cc1 [Compound C172, 7-(3,4-dichlorobenzoyl)-3-[4-(3-methoxypyridin-2-yl)phenyl]-2-[(propan-2-yl)amino]-5,6,7,8-tetrahydropyrido[3,4-d]pyrimidin-4(3H)-one] | 1.66 | 5.3
CC(C)Nc1nc2c(c(=O)n1-c1ccc(-c3cccc(N4CCOCC4)n3)cc1)CCN(C(=O)c1ccc(Cl)c(Cl)c1)C2 [Compound C173, 7-(3,4-dichlorobenzoyl)-3-{4-[6-(morpholin-4-yl)pyridin-2-yl]phenyl}-2-[(propan-2-yl)amino]-5,6,7,8-tetrahydropyrido[3,4-d]pyrimidin-4(3H)-one] | 0.88 | 7.8
CC(C)Nc1nc2c(c(=O)n1-c1ccc(-c3nccn3C)cc1)CCN(C(=O)c1ccc(Cl)c(Cl)c1)C2 [Compound C174, 7-(3,4-dichlorobenzoyl)-3-[4-(1-methyl-1H-imidazol-2-yl)phenyl]-2-[(propan-2-yl)amino]-5,6,7,8-tetrahydropyrido[3,4-d]pyrimidin-4(3H)-one] | 0.42 | 6.8
CC(C)Nc1nc2c(c(=O)n1-c1ccc(-c3ccco3)cc1)CCN(C(=O)c1ccc(Cl)c(Cl)c1)C2 [Compound C175, 7-(3,4-dichlorobenzoyl)-3-[4-(furan-2-yl)phenyl]-2-[(propan-2-yl)amino]-5,6,7,8-tetrahydropyrido[3,4-d]pyrimidin-4(3H)-one] | 1.25 | 17
CC(C)Nc1nc2c(c(=O)n1-c1ccc(-c3cnccn3)cc1)CCN(C(=O)c1ccc(Cl)c(Cl)c1)C2 [Compound C176, 7-(3,4-dichlorobenzoyl)-2-[(propan-2-yl)amino]-3-[4-(pyrazin-2-yl)phenyl]-5,6,7,8-tetrahydropyrido[3,4-d]pyrimidin-4(3H)-one] | 0.57 | 8.7
CC(C)Nc1nc2c(c(=O)n1-c1ccc(-c3ccnnc3)cc1)CCN(C(=O)c1ccc(Cl)c(Cl)c1)C2 [Compound C177, 7-(3,4-dichlorobenzoyl)-2-[(propan-2-yl)amino]-3-[4-(pyridazin-4-yl)phenyl]-5,6,7,8-tetrahydropyrido[3,4-d]pyrimidin-4(3H)-one] | 0.26 | 18.2
